# Experimental data reported in publication PMC10347545 (Journal of the American Chemical Society, 2023).
# Experiments:
# PPARγ-RXRα heterodimer = PPARγ-RXRα heterodimer formation assay; format: biochemical
# PPARγ LBD [1] = biological target: T1, PPARγ LBD (Homo sapiens, UniProt P37231); experiment: MS-based PPARγ ligand binding assay; conditions: 0.2–4 μM, absence and presence of 1 μM pioglitazone
# T1 sequence (P37231 238-503 limits assumed): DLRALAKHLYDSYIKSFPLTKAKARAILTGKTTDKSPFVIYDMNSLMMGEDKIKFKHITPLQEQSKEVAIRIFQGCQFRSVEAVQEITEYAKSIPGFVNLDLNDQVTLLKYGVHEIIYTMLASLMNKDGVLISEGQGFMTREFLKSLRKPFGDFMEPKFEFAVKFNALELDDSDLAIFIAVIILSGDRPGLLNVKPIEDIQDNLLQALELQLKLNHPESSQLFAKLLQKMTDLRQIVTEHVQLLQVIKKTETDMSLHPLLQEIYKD
# [2] = tested on: human PPAR response element (PPRE); experiment: PPRE reporter assay in HepG2 cells; format: cell-based
# FOXO = experiment: FoxO response element; format: cell-based; conditions: HepG2 cells, over time
# PPARγ LBD [3] = biological target: T1, PPARγ LBD; format: binding
# PPARγ LBD [4] = biological target: T1, PPARγ LBD; format: biochemical
# COS7 cells = experiment: Toxicity assay; format: cell-based; conditions: up to 100 μM, 24 h
# HepG2 cells = experiment: Differential gene expression; format: cell-based; conditions: 20 μM
# [5] = tested on: human adipocyte-derived stem cells (ASC; ASC52telo, hTERT); experiment: Adipocyte-derived stem cell differentiation; format: cell-based
# FOXO3a = FOXO3a Ser253 phosphorylation; format: cell-based; conditions: 20 μM, 16 h
# nuclear receptors = experiment: Selectivity profiling in Gal4-hybrid reporter gene assays; format: cell-based, human; conditions: 100 μM
# [6] = tested on: genes comprising a PPAR response element; conditions: cited from earlier work
structure (smiles),measurement,setting,value
"CC1(C)CCC(C)(C)c2cc(C3(c4ccc(C(=O)O)cc4)OCCO3)ccc21 [SR11237, reference compound]",PPARγ:RXR heterodimerization,PPARγ-RXRα heterodimer,enhanced
O=C(O)CSc1nc(Cl)cc(Nc2cccc(OCCc3ccccc3)c2)n1 [compound 2],binding of 2 to the PPARγ LBD,PPARγ LBD [1],dose-dependent manner
same,transcriptional activity via PPRE,[2]; alone,induced transcriptional activity
same,pioglitazone-mediated PPRE activation,[2]; with pioglitazone,enhanced pioglitazone-mediated PPRE activation
same,transcriptional activity of FOXO (FHRE activity),FOXO,diminished
same,thermal stabilization of the PPARγ LBD,PPARγ LBD [3],additive thermal stabilization
same,CBP-1 recruitment,PPARγ LBD [4],displaced
same,DRIP2 recruitment,PPARγ LBD [4],displaced
same,NCOR recruitment,PPARγ LBD [4],enhanced binding
same,NCoA6 recruitment,PPARγ LBD [4],weaker recruitment
same,PGC-1α recruitment,PPARγ LBD [4],weaker recruitment
same,SMRT recruitment,PPARγ LBD [4],enhanced binding
same,"cytotoxic effects (apoptosis, necrosis)",COS7 cells,no cytotoxic effects
same,PPARγ:RXR heterodimerization,PPARγ-RXRα heterodimer,decreased heterodimer formation
same,dimer stabilization by pioglitazone,PPARγ-RXRα heterodimer,abrogated
same,canonical PPAR signaling (gene expression),HepG2 cells,no induction
same,number of protein coding genes with significantly altered expression,"HepG2 cells; p-value <0.05, |log2(fold change)| > 1",1750
same,pioglitazone-induced adipogenesis,[5],diminished
same,adipogenesis (ASC differentiation),[5]; 50 μM,did not cause adipogenesis
same,phosphorylation of FOXO3a at Ser253,FOXO3a,promoted phosphorylation
same,agonism / antagonism on nuclear receptors,nuclear receptors,neither revealed agonism nor antagonistic effects
"CCc1ccc(CCOc2ccc(CC3SC(=O)NC3=O)cc2)nc1 (centres unmarked) [pioglitazone, reference compound]",FOXO signaling-related gene expression,[6],no effect
same,PPARγ:RXR heterodimerization,PPARγ-RXRα heterodimer,enhanced
